{"source": "ChEMBL document CHEMBL4000202", "about": "“Identification of a diverse synthetic abietane diterpenoid library for anticancer activity” (Bioorg Med Chem Lett, 2017)", "key": {"[1]": {"tested_on": "A549", "assay": "Cytotoxic activity against human A549 cells assessed as reduction in cell viability after 72 hrs by SRB assay", "format": "functional, cell-based", "settings": "A549, 72 h"}, "[2]": {"tested_on": "SK-OV-3", "assay": "Cytotoxic activity against human SKOV3 cells assessed as reduction in cell viability after 72 hrs by SRB assay", "format": "functional, cell-based", "settings": "SK-OV-3, 72 h"}, "[3]": {"tested_on": "PC-3", "assay": "Cytotoxic activity against human PC3 cells assessed as reduction in cell viability after 72 hrs by SRB assay", "format": "functional, cell-based", "settings": "PC-3, 72 h"}, "[4]": {"tested_on": "A549", "assay": "Potency index, ratio of 5-FU IC50 to compound IC50 for human A549 cells", "format": "functional"}, "[5]": {"tested_on": "MCF7", "assay": "Cytotoxic activity against human MCF7 cells assessed as reduction in cell viability", "format": "functional, cell-based"}, "[6]": {"tested_on": "HCT-116", "assay": "Cytotoxic activity against human HCT116 cells assessed as reduction in cell viability", "format": "functional, cell-based"}, "[7]": {"tested_on": "SK-BR-3", "assay": "Cytotoxic activity against human SKBR3 cells assessed as reduction in cell viability", "format": "functional, cell-based"}, "[8]": {"tested_on": "A549", "assay": "Induction of apoptosis in human A549 cells assessed as increase in cleaved PARP level after 36 hrs by Western blot method", "format": "functional, cell-based"}, "[9]": {"tested_on": "A549", "assay": "Induction of apoptosis in human A549 cells assessed as late apoptotic cells at 5 uM after 36 hrs by Annexin V/propidium iodide based flow cytometric analysis (reference value: 2.3%)", "format": "functional"}, "[10]": {"tested_on": "A549", "assay": "Induction of apoptosis in human A549 cells assessed as decrease in PARP level after 36 hrs by Western blot method", "format": "functional, cell-based"}, "[11]": {"tested_on": "A549", "assay": "Induction of apoptosis in human A549 cells assessed as necrotic cells at 5 uM after 36 hrs by Annexin V/propidium iodide based flow cytometric analysis (reference value: 0.2%)", "format": "functional"}, "[12]": {"tested_on": "A549", "assay": "Induction of apoptosis in human A549 cells assessed as decrease in Bcl-2 level after 36 hrs by Western blot method", "format": "functional, cell-based"}, "[13]": {"tested_on": "A549", "assay": "Induction of apoptosis in human A549 cells assessed as increase in Bax level after 36 hrs by Western blot method", "format": "functional, cell-based"}, "[14]": {"tested_on": "A549", "assay": "Induction of apoptosis in human A549 cells assessed as increase in cytochrome c level after 36 hrs by Western blot method", "format": "functional, cell-based"}, "[15]": {"tested_on": "A549", "assay": "Induction of apoptosis in human A549 cells assessed as increase in cleaved caspase-3 level after 36 hrs by Western blot method", "format": "functional, cell-based"}, "[16]": {"tested_on": "A549", "assay": "Effect on tubulin in human A549 cells at 1 to 100 uM after 18 hrs", "format": "cell-based"}, "[17]": {"tested_on": "L02", "assay": "Cytotoxic activity against human HL7702 cells", "format": "cell-based"}, "[18]": {"tested_on": "LNCaP", "assay": "Cytotoxic activity against human LNCAP cells assessed as reduction in cell viability", "format": "functional, cell-based"}, "[19]": {"tested_on": "A549", "assay": "Induction of apoptosis in human A549 cells assessed as genomic DNA fragmentation at 5 uM after 24 hrs by FITC/DAPI staining based TUNEL assay", "format": "functional, cell-based"}, "[20]": {"tested_on": "A549", "assay": "Induction of apoptosis in human A549 cells assessed as early apoptotic cells at 5 uM after 36 hrs by Annexin V/propidium iodide based flow cytometric analysis (reference value: 0.5%)", "format": "functional"}, "[21]": {"tested_on": "A549", "assay": "Induction of apoptosis in human A549 cells assessed as ROS generation at 1 to 100 uM after 18 hrs", "format": "functional, cell-based"}, "[22]": {"tested_on": "HFF", "assay": "Cytotoxic activity against HFF cells assessed as reduction in cell viability", "format": "cell-based", "settings": "Homo sapiens"}, "[23]": {"tested_on": "A549", "assay": "Induction of apoptosis in human A549 cells assessed as reduction in mitochondrial membrane potential at 5 uM after 24 hrs using JC-1 dye based spectrofluorometry", "format": "functional, cell-based"}, "[24]": {"tested_on": "MDA-MB-231", "assay": "Cytotoxic activity against human MDA-MB-231 cells assessed as reduction in cell viability", "format": "functional, cell-based"}}, "note": "Active and inactive are the calls of the source. The rule behind the calls is not given here."}
{"smiles": "COC(=O)[C@]1(C)CCC[C@]2(C)c3ccc(C(C)C)c(OC)c3[C@@H](O)C[C@@H]12", "values": [{"measurement": "IC50", "setting": "[1]", "result": 85.7, "unit": "µM"}, {"measurement": "IC50", "setting": "[2]", "result": 51.9, "unit": "µM"}, {"measurement": "IC50", "setting": "[3]", "result": 64.2, "unit": "µM"}]}
{"smiles": "COc1c(C(C)C)ccc2c1CC[C@H]1C(=O)CCC[C@]21C", "values": [{"measurement": "IC50", "setting": "[1]", "result": "> 100", "unit": "µM"}, {"measurement": "IC50", "setting": "[2]", "result": "> 100", "unit": "µM"}, {"measurement": "IC50", "setting": "[3]", "result": "> 100", "unit": "µM"}]}
{"smiles": "COc1cccc2c1CC[C@H]1C3=C(CC[C@]21C)C(=O)OC3", "values": [{"measurement": "IC50", "setting": "[1]", "result": "> 100", "unit": "µM"}, {"measurement": "IC50", "setting": "[2]", "result": "> 100", "unit": "µM"}, {"measurement": "IC50", "setting": "[3]", "result": "> 100", "unit": "µM"}]}
{"smiles": "COc1ccc(COC[C@H]2[C@H](O)CC[C@]3(C)c4cccc(OC)c4CC[C@@H]23)cc1", "values": [{"measurement": "IC50", "setting": "[1]", "result": 5.39, "unit": "µM"}, {"measurement": "IC50", "setting": "[2]", "result": 6.19, "unit": "µM"}, {"measurement": "IC50", "setting": "[3]", "result": 3.37, "unit": "µM"}]}
{"smiles": "CC(C)c1ccc2c(c1O)CC[C@H]1C3=C(CC[C@]21C)C(=O)OC3", "note": "[TRIPTOPHENOLIDE]", "values": [{"measurement": "IC50", "setting": "[1]", "result": "> 100", "unit": "µM"}, {"measurement": "IC50", "setting": "[2]", "result": "> 100", "unit": "µM"}, {"measurement": "IC50", "setting": "[3]", "result": "> 100", "unit": "µM"}]}
{"smiles": "CC(C)c1ccc2c(c1)CC[C@H]1[C@](C)(C(=O)O)CCC[C@]21C", "note": "[DEHYDROABIETIC ACID]", "values": [{"measurement": "IC50", "setting": "[1]", "result": 74.3, "unit": "µM"}, {"measurement": "IC50", "setting": "[2]", "result": 66, "unit": "µM"}, {"measurement": "IC50", "setting": "[3]", "result": 51.3, "unit": "µM"}]}
{"smiles": "COC(=O)[C@]1(C)CCC[C@]2(C)c3ccc(C(C)C)c(N)c3CC[C@@H]12", "values": [{"measurement": "IC50", "setting": "[1]", "result": 35.7, "unit": "µM"}, {"measurement": "IC50", "setting": "[2]", "result": 37.8, "unit": "µM"}, {"measurement": "IC50", "setting": "[3]", "result": 21.1, "unit": "µM"}]}
{"smiles": "COC(=O)[C@]1(C)CCC[C@]2(C)c3ccc(C(C)C)cc3CC[C@@H]12", "note": "[METHYL DEHYDROABIETATE]", "values": [{"measurement": "IC50", "setting": "[1]", "result": 41.2, "unit": "µM"}, {"measurement": "IC50", "setting": "[2]", "result": 51.3, "unit": "µM"}, {"measurement": "IC50", "setting": "[3]", "result": 37.7, "unit": "µM"}]}
{"smiles": "C=C1C(=O)CC[C@]2(C)c3cccc(OC)c3CC[C@@H]12", "values": [{"measurement": "IC50", "setting": "[1]", "result": 5.47, "unit": "µM"}, {"measurement": "IC50", "setting": "[2]", "result": 3.31, "unit": "µM"}, {"measurement": "IC50", "setting": "[3]", "result": 5.01, "unit": "µM"}]}
{"smiles": "CC(C)(C)[Si](C)(C)O[C@@H]1CC[C@]2(C)c3ccccc3CC[C@H]2[C@H]1CO", "values": [{"measurement": "IC50", "setting": "[1]", "result": "> 100", "unit": "µM"}, {"measurement": "IC50", "setting": "[2]", "result": "> 100", "unit": "µM"}, {"measurement": "IC50", "setting": "[3]", "result": "> 100", "unit": "µM"}]}
{"smiles": "CCOCO[C@]12CCC[C@]3(CO1)c1ccc(C(C)C)c(OC)c1C(=O)C[C@@H]23", "values": [{"measurement": "IC50", "setting": "[1]", "result": 1.32, "unit": "µM"}, {"measurement": "Ratio IC50", "setting": "[4]", "result": 24}, {"measurement": "IC50", "setting": "[5]", "result": "1.1 to 4.5", "unit": "µM"}, {"measurement": "IC50", "setting": "[6]", "result": "1.1 to 4.5", "unit": "µM"}, {"measurement": "IC50", "setting": "[7]", "result": "1.1 to 4.5", "unit": "µM"}, {"measurement": "Activity", "setting": "[8]", "result": "Dose-dependent effect"}, {"measurement": "Activity", "setting": "[9]", "result": 15.8, "unit": "%"}, {"measurement": "IC50", "setting": "[2]", "result": 1.57, "unit": "µM"}, {"measurement": "Activity", "setting": "[10]", "result": "Active"}, {"measurement": "Activity", "setting": "[11]", "result": 1.3, "unit": "%"}, {"measurement": "Activity", "setting": "[12]", "result": "Active"}, {"measurement": "Activity", "setting": "[13]", "result": "Dose-dependent effect"}, {"measurement": "Activity", "setting": "[14]", "result": "Dose-dependent effect"}, {"measurement": "Activity", "setting": "[15]", "result": "Dose-dependent effect"}, {"measurement": "Activity", "setting": "[16]", "result": "inactive"}, {"measurement": "IC50", "setting": "[17]", "result": "16.1 to 22.4", "unit": "µM"}, {"measurement": "IC50", "setting": "[18]", "result": "1.1 to 4.5", "unit": "µM"}, {"measurement": "Activity", "setting": "[19]", "result": "Active"}, {"measurement": "IC50", "setting": "[3]", "result": 2.58, "unit": "µM"}, {"measurement": "Activity", "setting": "[20]", "result": 1.3, "unit": "%"}, {"measurement": "Activity", "setting": "[21]", "result": "inactive"}, {"measurement": "IC50", "setting": "[22]", "result": "16.1 to 22.4", "unit": "µM"}, {"measurement": "Activity", "setting": "[23]", "result": "Active"}, {"measurement": "IC50", "setting": "[24]", "result": "1.1 to 4.5", "unit": "µM"}]}
{"smiles": "COC(=O)C1=C[C@@H]2CCc3c(ccc(C(C)C)c3OC)[C@@]2(C)CC1", "values": [{"measurement": "IC50", "setting": "[1]", "result": "> 100", "unit": "µM"}, {"measurement": "IC50", "setting": "[2]", "result": "> 100", "unit": "µM"}, {"measurement": "IC50", "setting": "[3]", "result": "> 100", "unit": "µM"}]}
{"smiles": "COc1c(C(C)C)ccc2c1CC[C@@]1(O)C3=C(C(=O)OC3)[C@@H](O)C[C@]21C", "values": [{"measurement": "IC50", "setting": "[1]", "result": "> 100", "unit": "µM"}, {"measurement": "IC50", "setting": "[2]", "result": 92.2, "unit": "µM"}, {"measurement": "IC50", "setting": "[3]", "result": "> 100", "unit": "µM"}]}
{"smiles": "COc1c(C(C)C)ccc2c1CC[C@H]1C3=C(CC[C@]21C)C(=O)OC3", "values": [{"measurement": "IC50", "setting": "[1]", "result": 98.8, "unit": "µM"}, {"measurement": "IC50", "setting": "[2]", "result": 49.8, "unit": "µM"}, {"measurement": "IC50", "setting": "[3]", "result": 50.4, "unit": "µM"}]}
